Reference: the NIST ThermoML archive (doi:10.1016/j.fluid.2014.06.024)
± gives the expanded uncertainty stated by the source.

Key:
[1] = molar heat capacity at constant pressure; conditions: 101.33 kPa, Liquid, Small sample (50 mg) DSC
[2] = 101.33 kPa, Liquid; for speed of sound: Sing-around technique in a fixed-path interferometer; for mass density: Vibrating tube method

Structure (SMILES) | molar heat capacity at constant pressure ([1]; 298.15 K) [J/K/mol] | molar heat capacity at constant pressure ([1]; 303.15 K) [J/K/mol] | molar heat capacity at constant pressure ([1]; 308.15 K) [J/K/mol] | speed of sound ([2]; 298.15 K) [m/s] | mass density ([2]; 298.15 K) [kg/m3] | speed of sound ([2]; 303.15 K) [m/s] | mass density ([2]; 303.15 K) [kg/m3] | speed of sound ([2]; 308.15 K) [m/s] | mass density ([2]; 308.15 K) [kg/m3]
Cc1ccccc1C [1,2-dimethylbenzene] | 187.55 ± 2.9 | 189.11 ± 2.9 | 190.62 ± 3 | 1346.2 ± 0.8 | 875.91 ± 1 | 1326.2 ± 0.8 | 871.7 ± 1 | 1306.1 ± 0.8 | 867.48 ± 1
Cc1ccccc1Cl [2-chlorotoluene] | 178.21 ± 2.8 | 180.01 ± 2.8 | 181.71 ± 2.8 | 1298.7 ± 1 | 1077.3 ± 1 | 1280.7 ± 1 | 1072.5 ± 1 | 1262.7 ± 1 | 1067.6 ± 1
c1ccccc1 [benzene] | 135.18 ± 2.1 | 136.4 ± 2.1 | 137.61 ± 2.1 | 1299.4 ± 0.8 | 873.54 ± 1 | 1276.1 ± 0.82 | 868.2 ± 1 | 1252.9 ± 0.82 | 862.84 ± 1
C1CCOCC1 [tetrahydropyran] | 149.62 ± 2.3 | 151.22 ± 2.3 | 153.08 ± 2.4 | 1269.8 ± 0.9 | 879.13 ± 1 | 1246.8 ± 0.9 | 873.99 ± 1 | 1224.4 ± 0.9 | 868.83 ± 1
Cc1ccccc1 [toluene] | 157.18 ± 2.4 | 158.61 ± 2.5 | 160.09 ± 2.5 | 1304.6 ± 1 | 862.18 ± 1 | 1283.2 ± 1 | 857.51 ± 1 | 1261.8 ± 1 | 852.82 ± 1
